Reference: patent publication US20230070582A1, “UTILIZATION OF FGF ACTIVATORS IN CULTURE MEDIA” (Yissum Research Development Company of the Hebrew …, priority 2020, published 2023)

Legend:
[1] = system: FGF pathway; details: by activating ERK pathway; zebrafish heart model; Molina et al. 2009; cited from earlier work
[2] = system: ovine fibroblasts; test: XTT cell proliferation assay, ovine fibroblasts 2D culture, gradient concentrations; type: cell-based; details: FIG. 3
Experimental: The effects of gradient concentration of both small molecules (ID-8 and FK-506) in ranges from about 1-50 μM for ID-8 and about 1-50 nM for FK-506 were tested on ovine fibroblasts 2D culture. Ovine fibroblasts were seeded in 96-well plate at a density of 1000 cells/well. ID-8 and FK-506 in serum free medium were incubated with the fibroblast cells for 48 hours before adding XTT (cell proliferation assay from Biological Industries, Israel) according to company protocol. Colorimetric signal was measured after 8 hours of XTT addition. Blank (medium only) measurements were subtracted from the sample measurements (n=4).

[3] = system: Bovine fibroblasts adapted to suspension culture; test: Bovine fibroblast cell growth in serum-free suspension culture, cell count on Day 3; type: cell-based; details: Day 3 count, FIG. 1
Experimental: Effects of ID-8 and/or FK-506 (alone or combined) on bovine fibroblast cell growth were evaluated. Bovine fibroblasts adapted to suspension culture were seeded in 0.3 millions/ml in a total volume of 20 ml in cell culture flasks. The flasks were kept in a shaker incubator with 100 rpm, 37° C., and 5% CO2. Cell counts were done on Day 3 using automatic cell counter (Cellaca®) with APOI staining to eliminate the dead cells from the counts.

[4] = system: mouse ESCs; details: serum-free culture; Miyabayashi et al. 2008; cited from earlier work

In the case of Cl.O=C1/C(=C/c2ccccc2)C(NC2CCCCC2)c2ccccc21 (mixture of isomers) [(E/Z)-BCI hydrochloride], the “effect on FGF pathway” value [1] is given as “hyperactivates FGF pathway”.
In the case of C=CC[C@@H]1/C=C(\C)C[C@H](C)C[C@H](OC)[C@H]2O[C@@](O)(C(=O)C(=O)N3CCCC[C@H]3C(=O)O[C@H](/C(C)=C/[C@@H]3CC[C@@H](O)[C@H](OC)C3)[C@H](C)[C@@H](O)CC1=O)[C@H](C)C[C@@H]2OC [FK-506, Tacrolimus], the “effect on ovine fibroblast cell growth” value ([2]; higher concentration of FK-506, e.g. 5 nM, 20 nM or 50 nM, with ID-8 at 1 μM) was “did not show significant effect on cell growth”, the “concentration of FK-506 giving the best cell growth (optimal concentration)” value ([2]; in combination with ID-8, 48 hours) was 1 to 2 nM and the “effect on bovine fibroblast cell growth as compared to FGF (10 ng/ml)” value ([3]; FK-506 alone 2 nM) was “didn't obtain a comparable effect”.
For COc1ccc(-n2c(C)c([N+](=O)[O-])c3ccc(O)cc32)cc1 [ID-8], the “ovine fibroblast cell growth versus control (no FGF)” value ([2]; higher concentrations of ID-8, e.g. 10 μM or 50 μM) is given as “more cell growth than the control”, the “concentration of ID-8 giving the best cell growth (optimal concentration)” value ([2]; in combination with FK-506, 48 hours) is given as 1 to 5 µM and the “self-renewal of mouse ESCs” value [4] is given as “support self-renewal”. The “effect on bovine fibroblast cell growth as compared to FGF (10 ng/ml)” value ([3]; ID-8 alone 1 μM) was “comparable effect”.
